Reference: PMC5132016 (Clinical Pharmacology in Drug Development, 2016)

Assays:
[1] = tofacitinib 30 mg twice daily; cited from earlier work
[2] = Single-dose pharmacokinetics of EE and LN; type: in vivo, human; settings: for Tmax: single oral Microgynon 30 alone, median (range), n = 19
[3] = cited from earlier work
[4] = Microgynon 30 + tofacitinib / Microgynon 30 alone
[5] = female, human, plasma, oral, adjusted geometric mean, Reference (Microgynon 30 alone)
[6] = tofacitinib 30 mg twice daily vs Microgynon 30 alone

Cc1ncc2n1-c1ccc(Cl)cc1C(c1ccccc1F)=NC2 [midazolam]
Change in Cmax when coadministered with tofacitinib [1]: no change | Change in total exposure (AUC∞) when coadministered with tofacitinib [1]: no change

C#C[C@]1(O)CC[C@H]2[C@@H]3CCC4=CC(=O)CC[C@@H]4[C@H]3CC[C@@]21CC [Levonorgestrel, levonorgestrel]
Ratio (Test/Reference) of adjusted geometric means, AUClast [2, 4]: 104.60% | Ratio (Test/Reference) of adjusted geometric means, AUC∞ [2, 4]: 100.87% | Ratio (Test/Reference) of adjusted geometric means, Cmax [2, 4]: 112.19% | AUC(0-t) ([2]; female, human, plasma, oral, AUClast, adjusted geometric mean, Reference (Microgynon 30 alone)): 35 ng·h/mL | AUC(0-inf) [2, 5]: 44.6 ng·h/mL | Cmax ([2]; female, human, plasma, oral, Cmax, adjusted geometric mean, Reference (Microgynon 30 alone)): 3.78 ng/mL | Tmax [2]: 1.0 (1.0–2.0) h | Increase of AUC∞ in the presence of tofacitinib [2, 6]: 0.9% | Increase of maximal plasma concentration when coadministered with tofacitinib [2, 6]: 12.2%

C#C[C@]1(O)CC[C@H]2[C@@H]3CCc4cc(O)ccc4[C@H]3CC[C@@]21C [Ethinylestradiol, ethinylestradiol]
AUC(0-inf) [2, 5]: 0.716 ng·h/mL | Tmax [2]: 1.5 (1.0–2.1) h | Decrease of maximal plasma concentration when coadministered with tofacitinib [2, 6]: 10.4% | Increase of AUC∞ in the presence of tofacitinib [2, 6]: 6.6%

C[C@@H]1CCN(C(=O)CC#N)C[C@@H]1N(C)c1ncnc2[nH]ccc12 [Tofacitinib]
Effect on the pharmacokinetics of EE and LN ([2]; tofacitinib 30 mg twice daily for 11 days, healthy women): no clinically relevant net inhibitory or inductive effect | Nonrenal share of clearance [3]: 70% | Renally excreted share of clearance [3]: 30% | Share of metabolism by CYP3A4 [3]: approximately 55%
